According to patent US12594349B2, “Compositions and methods for the targeting of PCSK9” (Scribe Therapeutics Inc., priority 2022, dated 2026):
Read-outs that look alike come from different tables or passages of the source.

B1: DOMAIN_26749: repressor domain derived from the king cobra, Ophiophagus hannah; SEQ ID NO: 135 (protein)
chain: STPVTFEDVVVYFTAAEWVHLTNWQRDFYQAVMMETYELVASVAGDGVPMAEDEEGGVERPVWQYIPRGKRRRKTPQPRAD
modifications: Ophiophagus hannah
B2: dCasX491: catalytically-dead CasX variant, SEQ ID NO: 4 (protein)
chain: QEIKRINKIRRRLVKDSNTKKAGKTGPMKTLLVRVMTPDLRERLENLRKKPENIPQPISNTSRANLNKLLTDYTEMKKAILHVYWEEFQKDPVGLMSRVAQPASKKIDQNKLKPEMDEKGNLTTAGFACSQCGQPLFVYKLEQVSEKGKAYTNYFGRCNVAEHEKLILLAQLKPEKDSDEAVTYSLGKFGQRALDFYSIHVTKESTHPVKPLAQIAGNRYASGPVGKALSDACMGTIASFLSKYQDIIIEHQKVVKGNQKRLESLRELAGKENLEYPSVTLPPQPHTKEGVDAYNEVIARVRMWVNLNLWQKLKLSRDDAKPLLRLKGFPSFPLVERQANEVDWWDMVCNVKKLINEKKEDGKVFWQNLAGYKRQEALRPYLSSEEDRKKGKKFARYQLGDLLLHLEKKHGEDWGKVYDEAWERIDKKVEGLSKHIKLEEERRSEDAQSKAALTDWLRAKASFVIEGLKEADKDEFCRCELKLQKWYGDLRGKPFAIEAENSILDISGFSKQYNCAFIWQKDGVKKLNLYLIINYFKGGKLRFKKIKPEAFEANRFYTVINKKSGEIVPMEVNFNFDDPNLIILPLAFGKRQGREFIWNDLLSLETGSLKLANGRVIEKTLYNRRTRQDEPALFVALTFERREVLDSSNIKPMNLIGVARGENIPAVIALTDPEGCPLSRFKDSLGNPTHILRIGESYKEKQRTIQAKKEVEQRRAGGYSRKYASKAKNLADDMVRNTARDLLYYAVTQDAMLIFANLSRGFGRQGKRTFMAERQYTRMEDWLTAKLAYEGLSKTYLSKTLAQYTSKTCSNCGFTITSADYDRVLEKLKKTATGWMTTINGKELKVEGQITYYNRYKRQNVVKDLSVELDRLSEESVNNDISSWTKGRSGEALSLLKKRFSHRPVQEKFVCLNCGFETHAAEQAALNIARSWLFLRSQEYKKYQTNKTTGNTDKRAFVETWQSFYRKKLKEVWKPAV
B3: DOMAIN_29304: one of the top nine most effective repressor domains (protein, listed as Peromyscus maniculatus)
chain: VTYNDVHVDITQEEWALMDPSQRNLYKDVMVETYMNLTAIGYNWENLEVEEPCQNPLKHGRHERPHTGEKPYEYNQCGKAFAQP
B4: 27.100 (nucleic acid)
guide: ACUUUGAGAGCCAUCACCAGCGACUAUGUCGUAGUGGGUAAAGCUCCCUCUUCGGAGGGAGCAUCAAAGCUCUCUCUUUCUGAGGCmU*mA*mG
modifications: as printed in the source, key not given here

Assays:
Huh7 cells = test: RNA-seq, differentially regulated off-target genes in transfected Huh7 cells; type: cell-based, human; settings: Huh7, 6 and 26 days post-transfection, |log2FC|>2 and adjusted p-value<0.001
Source text: (§1) Seeded Huh7 cells were transfected with mRNA encoding a catalytically-active CasX 676, dXR1, or LTRP5-ADD-ZIM3 and a gRNA with scaffold 316 and a spacer targeting the PCSK9 locus. Cells were harvested at 6 and 26 days post-transfection and subsequently lysed and stored in DNA/RNA Shield (Zymo Research). As an additional control, untreated, naïve cells were also harvested. The collected samples were subjected to gDNA/RNA extraction using the Quick-DNA/RNA Miniprep Plus kit (Zymo Research). RNA samples were used for total RNA sequencing (RNA-seq), which was performed by a third-party. Raw FASTQ files were received and processed with FASTQC, and adapters were trimmed using Trim Galore. Transcript expression was then quantified against the hg38 genome using Salmon to generate normalized counts for each gene (transcripts per million, or TPM). Differential expression analysis was performed using DESeq2. Genes with fewer than 10 counts in all samples were omitted from analysis, and all pairwise comparisons (e.g., differential gene expression analyses between untreated and treated conditions at the two individual timepoints) were done with significance thresholds of |log 2FC|>2 and adjusted p-value<0.001.

PCSK9 locus = test: RNA-seq, normalized PCSK9 read counts in transfected Huh7 cells; type: cell-based, human; settings: Huh7, mRNA + gRNA scaffold 316 v1, 6 and 26 days post-transfection
Source text: as §1

human PCSK9 locus = test: Secreted PCSK9 by ELISA in Huh7 cells transfected with mRNA and gRNA; type: cell-based; settings: Huh7 cells; for Secreted PCSK9: 6 days post-transfection, normalized to total cell count; for Percent reduction in PCSK9 secretion / Average percent reduction in PCSK9 secretion: LTRP5-ADD-ZIM3 mRNA; for Percent reduction in PCSK9 secretion: day 6, relative to non-targeting gRNA control; for Average percent reduction in PCSK9 secretion: day 6, averaged from the two doses
Procedure: To assess PCSK9 secretion, seeded Huh7 cells were transfected with mRNA encoding a catalytically-active CasX 676, dXR1, or LTRP5-ADD-ZIM3 and a gRNA with scaffold 316 and spacer targeting either the B2M or PCSK9 locus. Media supernatant was harvested at 6, 18, 36, and 87 days post-transfection to assess level of PCSK9 secretion by ELISA. Levels of PCSK9 secretion were normalized to total cell count. As an additional control, PCSK9 secretion was also measured in the media supernatant harvested from wells containing untreated, naïve cells.
The following three human hepatocyte cancer cell lines were used in this experiment: HepG2 cells, Hep3B cells, and Huh7 cells. ˜15,000 cells of each cell line were seeded per well; the next day, seeded cells were transfected with mRNA encoding a catalytically-active CasX 676, dXR1, or LTRP5-ADD-ZIM3 and a gRNA with scaffold 316 and spacer targeting either the B2M or PCSK9 locus (see Table 23 for specific spacers and sequences). Media supernatant was harvested at 4 days post-transfection to assess level of PCSK9 secretion by ELISA, and levels of PCSK9 secretion were normalized to total cell count and illustrated in FIGS. 11A-11C. Culturing of treated Huh7 cells continued, and media supernatant was harvested at 14 and 27 days post-transfection for measuring PCSK9 secretion by ELISA. As an additional experimental control, PCSK9 secretion was also measured in the media supernatant harvested from wells containing untreated, naïve cells.
To assess PCSK9 secretion, seeded Huh7 cells were co-transfected with mRNA encoding for LTRP5-ADD-ZIM3 and a gRNA with scaffold 316 and spacer targeting the PCSK9 locus using Lipofectamine™ 3000. Two doses of total RNA input at a 2:1 mass ratio of mRNA to gRNA were used for screening: 50 ng mRNA:25 ng gRNA and 25 ng mRNA:12.5 ng gRNA. Media supernatant was harvested at 6 days post-transfection to assess level of PCSK9 secretion by ELISA (Table 74). Levels of PCSK9 secretion were normalized to total cell count. As an additional control, PCSK9 secretion was also measured in the media supernatant harvested from cells transfected with mRNA encoding for mScarlet.

HBEGF = type: cell-based, human; settings: for log 2(fold change) of abundance before and after selection: HEK293T, dCasX491 fusion, scaffold 174 spacer 34.28, 2 ng/mL diphtheria toxin for 48 hours
B2M locus = type: cell-based; settings: for B2M repression compared with LTRP5-ZIM3: HEK293T, LTRP5 constructs without ADD domain, scaffold 316 spacer 7.165, days 6/7 to 26/27; for % HLA-negative cells (mean): HEK293T cells, gRNA with B2M-targeting spacer 7.37
mouse PCSK9 locus = test: Intracellular PCSK9 staining by flow cytometry in Hepa1-6 cells lipofected with mRNA and gRNA; type: cell-based; settings: Hepa1-6, dXR1 mRNA, day 6
Procedure: Seeded Hepa1-6 cells treated with the NATE™ inhibitor were lipofected with 300 ng of mRNA encoding dXR1 or LTRP1-ZIM3 (Table 12) and 150 ng of a PCSK9-targeting gRNA (Table 14). Seven different gRNAs spanning the promoter region of the mouse PCSK9 locus were tested, in addition to a non-targeting sequence complementary to the human PCSK9 gene (Table 14). Cells were harvested at 6, 13, and 25 days after transfection to measure intracellular levels of the PCSK9 protein using an intracellular flow cytometry staining protocol. […]
Seeded Hepa1-6 cells treated with the NATE™ inhibitor were lipofected with 300 ng of mRNA encoding LTRP1-ZIM3, LTRP5-ZIM3, catalytically-active CasX 491, or dCas9-ZNF10-DNMT3A/3L, and 150 ng of PCSK9-targeting gRNA (Table 14). Intracellular levels of PCSK9 protein were measured at 7, 14, 21, 36, and 71 days post-transfection using an intracellular staining protocol as described earlier for experiment #1.
Transfection of mRNA and gRNA into Hepa1-6 cells and intracellular PCSK9 staining were performed as described in Example 2. […] Intracellular levels of PCSK9 protein were measured at various timepoints, up to day 53 post-transfection using an intracellular staining protocol as described earlier in Example 2. […]

[1] = LTRP5-ADD-ZIM3 mRNA + gRNA scaffold 316, 25 ng mRNA:12.5 ng gRNA
[2] = LTRP5-ADD-ZIM3 mRNA + gRNA scaffold 316, 50 ng mRNA:25 ng gRNA

Molecule	differentially regulated off-target genes (Huh7 cells)	PCSK9 expression by RNA-seq (PCSK9 locus)	Secreted PCSK9 (human PCSK9 locus; [1]) [ng/mL]	Secreted PCSK9 (human PCSK9 locus; [2]) [ng/mL]	Percent reduction in PCSK9 secretion (human PCSK9 locus; 25 ng mRNA:12.5 ng gRNA) [%]	Percent reduction in PCSK9 secretion (human PCSK9 locus; 50 ng mRNA:25 ng gRNA) [%]	Average percent reduction in PCSK9 secretion (human PCSK9 locus) [%]	log 2(fold change) of abundance before and after selection (HBEGF)	other results
TG-06-154 (guide AGGGUGUGGGUGCUUGACGC; listed as RNA, chemistry not given here)	higher number of differentially regulated off-target genes	durably repress PCSK9 expression	24.48	6.87	65.64	91.65	78.64		
ZIM3: human ZIM3 KRAB domain, SEQ ID NO: 128 [reference compound]								1.7787	
standard ZNF10: human ZNF10 KRAB domain, SEQ ID NO: 129 [reference compound]								1.3637	
TG-06-133 (guide AUGGUAGGCACAAGCUCAGC; listed as RNA, chemistry not given here)	lowest number of differentially regulated off-target genes	durably repress PCSK9 expression	42.13	29.45	40.86	64.21	52.53		
TG-06-167 (guide CACUGAAUAGCGCAGCCGCA; listed as RNA, chemistry not given here)	higher number of differentially regulated off-target genes	durably repress PCSK9 expression	66.61	39.55	6.51	51.93	29.22		
B1								highest log 2 (fold change)	B2M repression compared with LTRP5-ZIM3 (B2M locus): most effective
B2									% HLA-negative cells (mean) (B2M locus; 50 days post-transfection): 0.49%; % HLA-negative cells (mean) (B2M locus; 73 days post-transfection): 0.83%
B3									B2M repression compared with LTRP5-ZIM3 (B2M locus): most effective; Log2 (fold change) (HBEGF; fold change in abundance of each domain in the library before and after diphtheria toxin selection, dXR repression of the HBEGF gene, criteria p-value <0.01 and log2(fold change) >2): 4.0496
B4									degree of repression with dXR1 mRNA compared with LTRP1-ZIM3 mRNA (mouse PCSK9 locus): less substantial
